Reference: the NIST ThermoML archive (doi:10.1021/je800155q)
± gives the expanded uncertainty stated by the source.

What was measured:
[1] = molar enthalpy of vaporization or sublimation; conditions: 298.15 K, Calvet Microcalorimeter
[2] = Crystal; DTA

SMILES | molar enthalpy ([1]; Liquid) | Normal melting temperature [2] | molar enthalpy ([1]; Crystal)
CC(C)(C)c1cccc(C(C)(C)C)n1 [2,6-di-tert-butylpyridine] | 13.5 ± 0.574 kcal/mol | – | –
CC(C)(C)c1ccncc1 [4-(1,1-dimethylethyl)pyridine] | 13 ± 0.621 kcal/mol | – | –
CC(C)(C)c1cc(C(C)(C)C)nc(C(C)(C)C)c1 [pyridine, 2,4,6-tris(1,1-dimethylethyl)-] | – | 68 ± 2 °C | 18.7 ± 0.813 kcal/mol
